Patent publication US9033962B2, “Photodynamic therapy including light pretreatment” (Case Western Reserve University, priority 2010, dated 2015)

What was measured:
[1] = used topically on skin lesions; cited from earlier work
[2] = human skin 1-2 hours after Pc 4 applied, no light pretreatment; cited from earlier work
[3] = Time interval for delivery of photosensitizer through skin, with or without first photoirradiation; assay type: in vivo; details: after a first photoirradiation
Text: Once the first photoirradiation has been delivered to the area of tissue, a sufficient interval of time should be allowed to pass for an effective amount of the photosensitizer to further penetrate the tissue. In the case of skin tissue, a sufficient interval of time is preferably provided to allow the photosensitizer to reach the lower levels of skin such as the basal epidermis and/or the papillary dermis, which is the upper layer of the dermis immediately beneath the epidermis. The particular layer of skin targeted can vary depending on the disease being treated. Examples of sufficient intervals include 1 hour, 30 minutes, 10 minutes, 5 minutes, or any other interval within this range. In addition to providing sufficient time for the photosensitizer to penetrate the skin to the desired level, care should also be taken to avoid providing too much time, which can result in passage of significant amounts of the photosensitizer beyond the intended site.

[4] = Pc 4 fluorescence after topical application on mouse ear skin, with or without an initial light dose; assay type: in vivo; details: Pc 4 0.1 mg/mL topical on mouse ear skin, initial small light dose 50 J/cm2, versus 15 minutes of topical application without light
Text: FIG. 1 is a pair of photographs showing that photoirradiation of mouse ear skin to which Pc 4 had been topically applied facilitates Pc 4 penetration into the skin.
(§1) When treating skin, the area of skin can be covered with an opaque dressing during the interval of time between the first and second photoirradiation to prevent further activation of the photosensitizer by ambient light. While not intending to be bound by theory, the first photoirradiation may increase the ability of the photosensitizing agent to penetrate tissue as a result of breaking up aggregates of the photosensitizing agent and/or by disrupting the tissue barrier as a result of the release of reactive oxygen species. Accordingly, this first photoirradiation can also be referred to as the disruptive photoirradiation, or light pretreatment. The ability of light pretreatment to facilitate the penetration of photosensitizer to lower levels of skin is illustrated by FIGS. 1 and 2.

[5] = Confocal imaging of skin sections from psoriasis patients with lesions treated with Pc 4 versus Pc 4 plus red light; assay type: in vivo, human; details: for location of Pc 4 fluorescence in skin: psoriasis lesions
Method: FIG. 2 includes 4 sets of images obtained from confocal imaging of skin sections from two psoriasis patients with lesions to which Pc 4 (0.1 mg/ml) versus Pc 4 (0.1 mg/ml) plus 100 J/cm2 of red light (675 nm) was applied.
as §1
A variety of methods are available to determine the amount of energy and/or time necessary for an effective amount of the photosensitizer to reach the desired tissue level, such as a lower level of the skin, under the conditions being used. Such methods can be referred to as photosensitizer localization assays. For example, a biopsy can be obtained after administration of the photosensitizer from which the photosensitizer is chemically extracted and quantified using conventional analytic techniques such as UV spectrophotometry. The photosensitizer (e.g., Pc 4) can also be identified from biopsy samples using confocal imaging of the fluorescence of the photosensitizer either with or without the use of additional labels targeted at specific intracellular components (e.g., DAPI, mitotracker). Such techniques can be helpful to determine therapeutically effective doses, and also to evaluate non-responding subjects for possible poor photosensitizer permeation through the skin or other complications.

Structure (SMILES): CN(C)CCC[Si](C)(C)O[Si]1(O)n2c3c4ccccc4c2N=C2N=C(N=c4c5ccccc5c(n41)=NC1=NC(=N3)c3ccccc31)c1ccccc12 (stereo not shown) [Pc 4, HOSiPcOSi(CH3)2(CH2)3N(CH3)2]
- safety profile [1]: excellent safety profile
- absorption in the epidermis [2]: significant absorption
- absorption in the papillary dermis [2]: minimal to no absorption
- time interval needed for delivery through skin [3]: fifteen
- depth of Pc 4 in skin (Pc 4 fluorescence) [4]: enhanced
- location of Pc 4 fluorescence in skin ([5]; Pc 4 0.1 mg/ml alone, after more than one hour of application): limited to the stratum corneum
- location of Pc 4 fluorescence in skin ([5]; Pc 4 0.1 mg/ml for 1 hour followed by 100 J/cm2 red light (675 nm)): not only in the stratum corneum but also in the epidermis and upper dermis
- Pc 4 fluorescence in the cells within the epidermis and upper dermis (higher magnification) ([5]; Pc 4 + light (100 J/cm2, 675 nm)): there is indeed Pc 4 fluorescence
- Pc 4 fluorescence in the cells within the epidermis and upper dermis (higher magnification) ([5]; Pc 4 alone): not observed
- absorption of Pc 4 into the epidermis and upper dermis ([5]; initial dose of light on psoriatic lesions in humans to which Pc 4 has been applied): facilitates the absorption
